Where two headings read alike, the source gives them in different places.
Biological target: T1, F508delCFTR (Homo sapiens, UniProt P13569, DEL508-508)
T1 construct: expressed in transfected cells; host or cells: CFBE41o- human lung-derived epithelial cells (CFBE4lo-F508delCFTR-HRP), doxycycline-inducible
Test: Cell Surface Expression-Horse Radish Peroxidase (CSE-HRP) Assay;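 as to Maximum % activity (with co-corrector): co-corrector and positive control are both the same reference corrector at 2 µM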;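 as to Maximum % activity (without co-corrector): percent of the 2 µM on-plate positive control corrector response above DMSO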
Format: cell-based
Settings: for Maximum % activity (with co-corrector) / Emax: maximum at any tested concentration, normalized to on-plate positive control; for Emax: read-out: Maximum % activity (without co-corrector)

[1] = test compound without co-corrector, read-out: EC50 (without co-corrector)
[2] = with co-corrector (2 μM of 3-[(2R,4R)-4-({[1-(2,2-difluoro-1,3-benzodioxol-5-yl)cyclopropyl]carbonyl}amino)-7-methoxy-3,4-dihydro-2H-chromen-2-yl]benzoic acid), read-out: EC50 (with co-corrector)
[3] = test compound without co-corrector
[4] = with co-corrector (2 μM of 3-[(2R,4R)-4-({[1-(2,2-difluoro-1,3-benzodioxol-5-yl)cyclopropyl]carbonyl}amino)-7-methoxy-3,4-dihydro-2H-chromen-2-yl]benzoic acid)
[5] = CSE-HRP, test compound without co-corrector, read-out: EC50 (without co-corrector)
[6] = CSE-HRP, with co-corrector (2 μM of 3-[(2R,4R)-4-({[1-(2,2-difluoro-1,3-benzodioxol-5-yl)cyclopropyl]carbonyl}amino)-7-methoxy-3,4-dihydro-2H-chromen-2-yl]benzoic acid), read-out: EC50 (with co-corrector)
[7] = CSE-HRP, with co-corrector (2 μM)

T1 sequence (P13569 with tags, fused parts or gaps DEL508-508): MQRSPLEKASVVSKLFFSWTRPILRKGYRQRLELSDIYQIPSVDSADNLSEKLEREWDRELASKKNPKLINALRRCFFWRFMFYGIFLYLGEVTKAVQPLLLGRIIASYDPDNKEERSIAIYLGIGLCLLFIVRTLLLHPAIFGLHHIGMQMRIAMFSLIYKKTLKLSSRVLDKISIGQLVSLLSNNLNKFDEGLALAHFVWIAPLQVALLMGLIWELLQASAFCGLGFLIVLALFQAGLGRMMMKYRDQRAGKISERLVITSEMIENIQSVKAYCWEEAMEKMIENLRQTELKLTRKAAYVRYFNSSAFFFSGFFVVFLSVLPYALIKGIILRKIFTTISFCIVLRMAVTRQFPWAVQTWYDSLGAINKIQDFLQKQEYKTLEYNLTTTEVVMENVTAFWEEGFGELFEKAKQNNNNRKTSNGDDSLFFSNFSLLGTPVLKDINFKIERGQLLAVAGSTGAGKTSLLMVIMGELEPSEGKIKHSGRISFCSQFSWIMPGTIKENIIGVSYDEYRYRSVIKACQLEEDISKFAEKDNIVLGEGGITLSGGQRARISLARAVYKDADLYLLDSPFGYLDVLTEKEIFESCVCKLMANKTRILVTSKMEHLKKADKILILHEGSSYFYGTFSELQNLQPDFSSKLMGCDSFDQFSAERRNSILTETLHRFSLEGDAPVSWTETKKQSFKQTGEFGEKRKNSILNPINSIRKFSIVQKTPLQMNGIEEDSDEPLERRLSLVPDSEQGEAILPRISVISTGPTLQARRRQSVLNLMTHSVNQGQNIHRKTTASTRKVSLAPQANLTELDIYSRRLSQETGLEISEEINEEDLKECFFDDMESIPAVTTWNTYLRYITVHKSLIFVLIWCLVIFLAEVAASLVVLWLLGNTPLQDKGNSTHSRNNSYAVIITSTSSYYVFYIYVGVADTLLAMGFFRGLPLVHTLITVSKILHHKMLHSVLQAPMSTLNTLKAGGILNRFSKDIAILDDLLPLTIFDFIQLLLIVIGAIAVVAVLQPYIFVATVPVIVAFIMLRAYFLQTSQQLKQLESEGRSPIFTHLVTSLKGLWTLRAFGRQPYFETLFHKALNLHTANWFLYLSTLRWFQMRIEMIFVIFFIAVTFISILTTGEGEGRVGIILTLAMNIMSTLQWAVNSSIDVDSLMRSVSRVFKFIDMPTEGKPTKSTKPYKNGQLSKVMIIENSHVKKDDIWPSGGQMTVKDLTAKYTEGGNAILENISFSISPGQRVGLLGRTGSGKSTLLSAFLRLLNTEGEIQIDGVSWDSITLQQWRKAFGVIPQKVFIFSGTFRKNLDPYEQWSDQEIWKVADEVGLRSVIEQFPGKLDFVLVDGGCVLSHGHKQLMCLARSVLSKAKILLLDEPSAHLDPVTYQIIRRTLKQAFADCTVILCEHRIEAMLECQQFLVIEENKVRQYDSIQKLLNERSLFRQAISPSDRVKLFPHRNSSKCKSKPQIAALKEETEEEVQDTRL

SMILES	EC50 [1] [nM]	EC50 [2] [nM]	Maximum % activity (with co-corrector) (with co-corrector (2 μM))	Emax (without co-corrector) [%]	Emax [3] [%]	Maximum % activity (with co-corrector) [4]	EC50 [5] [nM]	EC50 [6] [nM]	Maximum % activity (with co-corrector) [7]	Emax (CSE-HRP, without co-corrector) [%]
COc1ccc(C2(C(F)(F)F)CC2)cc1CN[C@H]1[C@H](C(C)(C)C)[C@@H](C(=O)O)N(C(=O)[C@@H]2CCCCO2)[C@H]1c1cccnc1N(C)C [Example I-176]	1000 to 10000	1000 to 10000	+++ (≥350)	> 200	–	–	–	–	–	–
COc1ncc(-c2ccc(F)cc2C)cc1CN[C@H]1[C@H](C(C)(C)C)[C@@H](C(=O)O)N(C(=O)C2CCCCC2)[C@H]1c1ccccc1 [II-343]	< 1000	< 1000	–	–	100 to 200	+++ (≥350)	–	–	–	–
COc1ccc(C(C)(C)C)cc1CN[C@H]1[C@H](C(C)(C)C)[C@@H](C(=O)O)N(C(=O)C2CCCCC2)[C@H]1c1ccccc1F [Example 24, (2S,3S,4S,5S)-3-tert-butyl-4-{[(5-tert-butyl-2-methoxyphenyl)methyl]amino}-1-(cyclohexanecarbonyl)-5-(2-fluorophenyl)pyrrolidine-2-carboxylic acid]	< 1000	< 1000	+++ (≥350)	> 200	–	–	–	–	–	–
CC(C)(C)c1ccc(O)c(CN[C@H]2[C@H](C(C)(C)C)[C@@H](C(=O)O)N(C(=O)C3CCCCC3)[C@H]2c2ccccc2)c1 [Example I-80]	> 10000	> 10000	+ (<150)	< 100	–	–	–	–	–	–
COc1ccc(C(F)(F)F)cc1OCCN[C@H]1[C@H](C(C)(C)C)[C@@H](C(=O)O)N(C(=O)OC(C)C)[C@H]1c1cccnc1OC(C)C [Example I-309]	–	–	–	–	–	–	1000 to 10000	1000 to 10000	+++ (≥350)	100 to 200
COc1ncc(C2CCC2)cc1CN[C@H]1[C@H](C(C)(C)C)[C@@H](C(=O)O)N(C(=O)[C@@H]2CCC[C@@H](F)C2)[C@H]1c1ccccc1 [II-532]	1000 to 10000	< 1000	–	–	> 200	+++ (≥350)	–	–	–	–
COc1cc(Cl)ccc1CN[C@@H]1[C@@H](C(C)(C)C)[C@H](C(=O)O)N(C(=O)[C@@H]2CCC[C@@H](OC)C2)[C@@H]1c1ccccc1 (racemic) [II-38]	–	–	–	–	–	–	1000 to 10000	1000 to 10000	+++ (≥350)	100 to 200
COc1ccc(C(C)(C)C)cc1CN[C@H]1[C@H](C(C)(C)C)[C@@H](C(=O)O)N(C(=O)Cc2cccc(C#N)c2)[C@H]1c1ccccc1 [II-240]	–	–	–	–	–	–	1000 to 10000	< 1000	+++ (≥350)	> 200
COc1ccc(C(C)(C)C)cc1CN[C@H]1[C@H](C(C)(C)C)[C@@H](C(=O)O)N(C(=O)C2(c3ccccn3)CC2)[C@H]1c1ccccc1 [II-189]	–	–	–	–	–	–	1000 to 10000	1000 to 10000	+++ (≥350)	> 200

Next, values leading:

EC50 [1] [nM]	EC50 [2] [nM]	Maximum % activity (with co-corrector) (with co-corrector (2 μM))	Emax (without co-corrector) [%]	Emax [3] [%]	Maximum % activity (with co-corrector) [4]	EC50 [5] [nM]	EC50 [6] [nM]	Maximum % activity (with co-corrector) [7]	Emax (CSE-HRP, without co-corrector) [%]	SMILES
> 10000	1000 to 10000	++ (≥150 and <350)	–	< 100	–	–	–	–	–	COc1ccc(C(F)(F)F)cc1CN[C@@H]1[C@@H](C(C)(C)C)[C@H](C(=O)O)N(C(=O)[C@](OC)(c2ccccc2)C(F)(F)F)[C@@H]1c1ccccc1 [III-102]
1000 to 10000	1000 to 10000	–	–	< 100	++ (≥150 and <350)	–	–	–	–	O=C(O)[C@H]1[C@H](C2CC2)[C@@H](Nc2cc(C(F)(F)F)ccn2)[C@@H](c2ccccc2)N1C(=O)C1CCCCC1 (racemic) [III-33]
1000 to 10000	1000 to 10000	+++ (≥350)	–	100 to 200	–	–	–	–	–	COc1ccc(C2(C)CCC2)cc1CN[C@H]1[C@H](C(C)(C)C)[C@@H](C(=O)O)N(C(=O)[C@H]2CCCCO2)[C@H]1c1cccnc1OC [III-234]
1000 to 10000	1000 to 10000	–	–	< 100	++ (≥150 and <350)	–	–	–	–	COCCOc1ccc(C(F)(F)F)cc1CN[C@@H]1[C@@H](C(C)(C)C)[C@H](C(=O)O)N(C(=O)C2CCCCC2)[C@@H]1c1ccccc1 (racemic) [III-64]

Source: patent US20180099931A1 (AbbVie S.à.r.l., priority 2016, published 2018)
